Results from patent US11613535B2, “Compounds for MYC inhibition” (THE SCRIPPS RESEARCH INSTITUTE, priority 2018, dated 2023).
In brackets after ≈: the same amount, converted by molar mass.

Legend:
[1] = Solubility analysis by dynamic light scattering; type: physicochemical
Method: (§1) Compound solubilities were measured by dynamic light scattering (Table 1). […] 2. Detection was conducted on a graphene surface. 3. A His-tagged bHLH construct was immobilized on a chip for site-specific functionalization. […] Compounds were also screened against a monomeric form of MAX (mMAX), as well as MYC-MAX and MAX-MAX dimers.
Solubility analysis. Compounds were analyzed for solubility by dynamic light scattering on a DynaPro NanoStar detector (Wyatt Technology). Compounds were dissolved in MES (pH 6.0) from a 1000×DMSO stock at varying concentrations. Samples were analyzed for aggregation and the maximal concentration at which aggregates were not observed was used as the measure of solubility.

[2] = target: T1, His-tagged MYC (Homo sapiens, UniProt P01106); assay: Bio-FET relative binding studies; conditions: Relative to 5a Req; compounds at 10 μM in MES (pH 6.0) with 3% DMSO
T1 construct: A His-tagged bHLH construct was immobilized on a chip for site-specific functionalization; made in house; host or cells: BL21 E. coli
T1 sequence (P01106 369-421 limits assumed): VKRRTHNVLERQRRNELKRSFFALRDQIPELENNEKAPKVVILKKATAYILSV
Method: as §1
Protein expression and purification. His-tagged MYC, mMAX, MYC-MAX, and MAX-MAX constructs were expressed in BL21 E. coli cells and purified as previously described.^10
FET functionalization and regeneration. FET experiments were conducted on an Agile R100 (Nanomedical Diagnostics) at ambient temperature. Chips were functionalized with Ni-NTA according to manufacturer protocols. […] Ni-NTA functionalized chips were regenerated via treatment with 250 mM imidazole for 30 mins, followed by extensive washing in MES, then reintroduction of His-tagged protein.
Relative binding studies. Test compounds were dissolved to desired concentration in MES (pH 6.0) buffer with 3% DMSO. Protein-bound chips were initialized and rinsed in MES buffer with 3% DMSO. For relative binding studies, 6-8 test compounds (including 5a) were analyzed at 10 μM in a single run, and the Req determined and compared to that of 5a. Compounds were tested a minimum of three times across different chips.

[3] = system: CEF transfected with ATG-MYC; assay: CEF focus assay (microtumor formation); type: cell-based, chicken; conditions: Measured in CEF transfected with ATG-MYC
From the text: The lead exemplified compound in the prior patent application is termed KJ-Pyr-9 herein. […] CEF assay.

[4] = target: T2, MYC (Homo sapiens, UniProt P01106); assay: MYC affinity assessment by Bio-FET concentration curve; type: binding; conditions: concentration for ½ Rmax, averaged across three chips
T2 construct: A His-tagged bHLH construct was immobilized on a chip for site-specific functionalization; made in house; host or cells: BL21 E. coli
T2 sequence (P01106 369-421 limits assumed): as above
Method: (§2) A 10 mg/kg i.v. PK study was conducted in mouse to determine if these favored properties translated into improved PK. Non-compartmental analysis of the mouse PK followed by allometric scaling to the rat afforded a comparison to the rat PK study conducted previously on 5a and is shown in Table 2.
FET functionalization and regeneration. FET experiments were conducted on an Agile R100 (Nanomedical Diagnostics) at ambient temperature. Chips were functionalized with Ni-NTA according to manufacturer protocols. Surface-bound Ni-NTA sites were then bound to His-tagged protein by 15 min incubation with ˜100 nM protein in 50 mM MES (pH 6.0). Ni-NTA functionalized chips were regenerated via treatment with 250 mM imidazole for 30 mins, followed by extensive washing in MES, then reintroduction of His-tagged protein.
MYC affinity assessment. […] Varying concentrations of 5g were allowed to equilibrate with MYC, and the Req values plotted against the concentration. […] This was repeated across three chips and the affinity averaged across those three runs.

[5] = PK analysis of 5g, 10 mg/kg i.v.; type: in vivo, C57BL/6 mice
Method: as §2
PK analysis. Pharmacokinetic analysis of 5g was conducted by Explora Biolabs. 12 C57BL/6 (6 male, 6 female) mice were administered 5g at 10 mg/kg by IV injection. Blood samples were collected at 2 min and 0.08, 0.25, 0.5, 1, 2, 8 and 24 hours post-injection. Bioanalysis was conducted by Integrated Analytical Solutions by processing through a Shimadzu VP series 10 system LC followed by mass analysis on an Applied Biosystems/MDS SCIEX API 3000 triple quadrupole mass spectrometer. All procedures involving the care and use of animals was approved by the IACUC at Explora BioLabs.

Row | Structure (SMILES) | Solubility ([1]; Measured by DLS in MES (pH 6.0) with <0.1% DMSO) [µM] | FET Req [2] [%] | IC50 ([3]; Gallus gallus) [µM] | Kd [4] [µM] | improvement in exposure (AUC) ([5]; 5g versus 5a) [fold] | mean residence time ([5]; 5g, 10 mg/kg i.v. mouse PK, comparison) [h] | AUC ([5]; 5g, 10 mg/kg i.v., C57Bl6 mice) | CI ([5]; 5g, 10 mg/kg i.v., C57Bl6 mice) [mL/min/kg] | Half-life ([5]; 5g, 10 mg/kg i.v., C57Bl6 mice) [h] | Vss ([5]; 5g, 10 mg/kg i.v., C57Bl6 mice) [L] | MRT ([5]; both sexes, C57BL/6, mouse, blood, iv, 5g, 10 mg/kg i.v., C57Bl6 mice) [h] | Solubility ([1]; pH 6) [µM] | IC50 [3] [µM]
1 | NC(=O)c1ccc(-c2cc(-c3ccc(-c4nccs4)cc3)nc(-c3ccco3)c2)cc1 [Compound 5g] | 125 (≈ 52.9 µg/mL) | 97 | 5 | 0.0125 ± 0.0041 | 30 | 4.8 | 44,000 ng*h/mL | 3.8 | 4.8 | 0.97 | 4.3 | – | –
2 | N#Cc1ccc(-c2cc(-c3ccc(C(N)=O)cc3)ccn2)cc1 [Compound 7a] | – | 0 | – | – | – | – | – | – | – | – | – | 32 (≈ 9.58 µg/mL) | 10
3 | N#Cc1ccc(-c2cccc(-c3ccco3)n2)cc1 [Compound 7b] | – | 0 | – | – | – | – | – | – | – | – | – | 10 (≈ 2.46 µg/mL) | –
